Experimental data: patent publication US12097202B2 (Kadmon Corporation, LLC, priority 2022, dated 2024)

Tested on: patients with chronic GVHD
Assay: Example 2: phase II randomized study of belumosudil (KD025-213) in cGVHD, efficacy and safety;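 note: allogeneic HCT recipients aged ≥12 years with persistent cGVHD after two to five earlier systemic treatment lines, responses judged by site investigators, 12-month analysis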
Conditions: for Cough / Diarrhea / Dyspnea / Fatigue / Headache / Muscle spasms / Nausea / Peripheral edema / Vomiting: All grades; for Hyperglycemia / Hypertension / Pneumonia: Grade ≥3; for ALT increased / AST increased / Bilirubin conjugated increased / Blood alkaline phosphatase increased / GGT increased / Hypoalbuminemia / LFT increased / Transaminases increased: Liver-related AE; for Clinically significant improvement from baseline (LSS), Overall: decrease ≥7 points in LSS score
[1] = 200 mg BID (n = 66), of subjects with organ involved
[2] = 200 mg QD (n = 66), of subjects with organ involved
[3] = Total (N = 132), of subjects with organ involved
[4] = Total, N=132, mITT, listed as Belumosudil

Text: Concomitant treatment with supportive care therapies for chronic GVHD was permitted. […] Initiation of new systemic chronic GVHD therapy while on study was not permitted.
Eligible subjects were allogeneic hematopoietic cell transplant recipients aged ≥12 years with persistent cGVHD manifestations after receiving 2 to 5 prior systemic lines of therapy. Subjects were required to be receiving stable corticosteroid therapy for 2 weeks prior to screening and to have a Karnofsky or Lansky Performance Status Scale score≥60. Certain concurrent immunosuppressive medications were allowed because drug-drug interactions were not anticipated.
Randomization was stratified (1:1) by cGVHD severity and prior exposure to ibrutinib.
All responses were assessed by the study site investigators. Secondary end points included duration of response (DOR), time to response, changes in LSS summary score, failure-free survival (FFS), corticosteroid dose reductions, and overall survival (OS). DOR was measured from the time of initial PR or CR until documented progression from best response of cGVHD, time from initial response to start of additional systemic cGVHD therapy, or death. The 7-day LSS summary score was calculated based on the developer recommendations and was compared with the score from baseline; an improvement ≥7 points was considered clinically meaningful. […] Relative dose intensity (RDI) was used as a surrogate measure of drug tolerability and was defined as actual dose intensity/planned dose intensity, where dose intensity was defined as the cumulative dose over the duration of exposure (mg/d). Actual dose intensity captured the sum of actual doses received over the duration of exposure and incorporated dose reductions and/or interruptions.
The Hochberg procedure was used for multiplicity adjustment for the primary end point of best ORR. […] CI was calculated using the Clopper-Pearson interval (exact) method.

CC(C)NC(=O)COc1cccc(-c2nc(Nc3ccc4[nH]ncc4c3)c3ccccc3n2)c1 [belumosudil, 2-{3-[4-(1H-indazol-5-ylamino)-2-quinazolinyl]phenoxy}-N-(propan-2-yl) acetamide]
CR, Eyes [1]: (12) %
CR, Joints and fascia [1]: (20) %
CR, Lower GI [1]: (57) %
ORR, Esophagus [1]: (42) %
ORR, Lower GI [1]: (71) %
ORR, Lungs [1]: (22) %
ORR, Mouth [1]: (57) %
ORR, Skin [1]: (42) %
ORR, Upper GI [1]: (40) %
PR, Joints and fascia [1]: (47) %
PR, Lower GI [1]: (14) %
CR, Joints and fascia [2]: (20) %
CR, Liver [2]: (22) %
CR, Lungs [2]: (17) %
CR, Upper GI [2]: (54) %
ORR, Eyes [2]: (33) %
ORR, Joints and fascia [2]: (75) %
ORR, Liver [2]: (33) %
ORR, Lower GI [2]: (67) %
ORR, Lungs [2]: (29) %
ORR, Mouth [2]: (53) %
ORR, Skin [2]: (33) %
ORR, Upper GI [2]: (62) %
PR, Skin [2]: (18) %
Clinically significant improvement from baseline (LSS), Nonresponder (200 mg daily): (29) %
Any AE (200 mg daily (n = 66)): (99) %
Deaths (200 mg daily (n = 66)): (12) %
Drug-related AEs (200 mg daily (n = 66)): (74) %
Drug-related SAEs (200 mg daily (n = 66)): (8) %
Grade ≥3 AEs (200 mg daily (n = 66)): (56) %
Liver-related AEs (200 mg daily (n = 66)): (18) %
SAEs (200 mg daily (n = 66)): (41) %
CS discontinuation (200 mg daily, n=66, mITT): (20) %
FFS at 6 mo (200 mg daily, n=66, mITT): 73%
ORR (best, any time) (200 mg daily, n=66, mITT): (74) %
ORR for responses occurring within 6 mo of treatment (200 mg daily, n=66, mITT): (71) %
ORR for responses occurring within 12 mo of treatment (200 mg daily, n=66, mITT): (74) %
PR, within 6 mo of treatment (200 mg daily, n=66, mITT): (68) %
PR, within 12 mo of treatment (200 mg daily, n=66, mITT): (68) %
Clinically significant improvement from baseline (LSS), Nonresponder (200 mg twice daily): (33) %
Clinically significant improvement from baseline (LSS), Responder (200 mg twice daily): (71) %
Any AE (200 mg twice daily (n = 66)): (100) %
Deaths (200 mg twice daily (n = 66)): (9) %
Drug-related AEs (200 mg twice daily (n = 66)): (61) %
Drug-related SAEs (200 mg twice daily (n = 66)): (3) %
Grade ≥3 AEs (200 mg twice daily (n = 66)): (52) %
Liver-related AEs (200 mg twice daily (n = 66)): (29) %
SAEs (200 mg twice daily (n = 66)): (35) %
FFS at 6 mo (200 mg twice daily, n=66, mITT): 76%
ORR (best, any time) (200 mg twice daily, n=66, mITT): (77) %
PR, within 6 mo of treatment (200 mg twice daily, n=66, mITT): (71) %
PR, within 12 mo of treatment (200 mg twice daily, n=66, mITT): (73) %
Cough (200 mg daily (n = 66)): (30) %
Diarrhea (200 mg daily (n = 66)): (35) %
Dyspnea (200 mg daily (n = 66)): (32) %
Fatigue (200 mg daily (n = 66)): (46) %
Headache (200 mg daily (n = 66)): (20) %
Muscle spasms (200 mg daily (n = 66)): (20) %
Nausea (200 mg daily (n = 66)): (35) %
Peripheral edema (200 mg daily (n = 66)): (26) %
Vomiting (200 mg daily (n = 66)): (27) %
Cough (200 mg twice daily (n = 66)): (26) %
Diarrhea (200 mg twice daily (n = 66)): (32) %
Dyspnea (200 mg twice daily (n = 66)): (18) %
Fatigue (200 mg twice daily (n = 66)): (30) %
Headache (200 mg twice daily (n = 66)): (27) %
Muscle spasms (200 mg twice daily (n = 66)): (20) %
Nausea (200 mg twice daily (n = 66)): (27) %
Peripheral edema (200 mg twice daily (n = 66)): (20) %
Vomiting (200 mg twice daily (n = 66)): (15) %
Cough (Total (N = 132)): (28) %
Diarrhea (Total (N = 132)): (33) %
Dyspnea (Total (N = 132)): (25) %
Fatigue (Total (N = 132)): (38) %
Headache (Total (N = 132)): (24) %
Muscle spasms (Total (N = 132)): (20) %
Nausea (Total (N = 132)): (31) %
Peripheral edema (Total (N = 132)): (23) %
Vomiting (Total (N = 132)): (21) %
Hyperglycemia (200 mg daily (n = 66)): (5) %
Hypertension (200 mg daily (n = 66)): (6) %
Pneumonia (200 mg daily (n = 66)): (9) %
Hyperglycemia (200 mg twice daily (n = 66)): (5) %
Hypertension (200 mg twice daily (n = 66)): (6) %
Pneumonia (200 mg twice daily (n = 66)): (6) %
Hyperglycemia (Total (N = 132)): (5) %
Hypertension (Total (N = 132)): (6) %
Pneumonia (Total (N = 132)): (8) %
ALT increased (200 mg daily (n = 66)): (6) %
AST increased (200 mg daily (n = 66)): (8) %
Bilirubin conjugated increased (200 mg daily (n = 66)): (2) %
Blood alkaline phosphatase increased (200 mg daily (n = 66)): (6) %
GGT increased (200 mg daily (n = 66)): (9) %
Hypoalbuminemia (200 mg daily (n = 66)): (3) %
LFT increased (200 mg daily (n = 66)): (2) %
Transaminases increased (200 mg daily (n = 66)): (2) %
ALT increased (200 mg twice daily (n = 66)): (11) %
AST increased (200 mg twice daily (n = 66)): (12) %
Bilirubin conjugated increased (200 mg twice daily (n = 66)): 0%
Blood alkaline phosphatase increased (200 mg twice daily (n = 66)): (9) %
GGT increased (200 mg twice daily (n = 66)): (15) %
Hypoalbuminemia (200 mg twice daily (n = 66)): (3) %
LFT increased (200 mg twice daily (n = 66)): 0%
Transaminases increased (200 mg twice daily (n = 66)): (2) %
ALT increased (Total (N = 132)): (8) %
AST increased (Total (N = 132)): (10) %
Bilirubin conjugated increased (Total (N = 132)): (1) %
Blood alkaline phosphatase increased (Total (N = 132)): (8) %
GGT increased (Total (N = 132)): (12) %
Hypoalbuminemia (Total (N = 132)): (3) %
LFT increased (Total (N = 132)): (1) %
Transaminases increased (Total (N = 132)): (2) %
Clinically significant improvement from baseline (LSS), Nonresponder (Total): (31) %
Clinically significant improvement from baseline (LSS), Responder (Total): (70) %
Any AE (Total (N = 132)): (99) %
Drug-related AEs (Total (N = 132)): (67) %
Drug-related SAEs (Total (N = 132)): (5) %
Grade ≥3 AEs (Total (N = 132)): (54) %
Liver-related AEs (Total (N = 132)): (24) %
SAEs (Total (N = 132)): (38) %
CR, Esophagus [3]: (45) %
CR, Eyes [3]: (14) %
CR, Joints and fascia [3]: (20) %
CR, Liver [3]: (31) %
CR, Lower GI [3]: (62) %
CR, Lungs [3]: (13) %
CR, Mouth [3]: (44) %
CR, Skin [3]: (16) %
CR, Upper GI [3]: (48) %
ORR, Esophagus [3]: (45) %
ORR, Eyes [3]: (42) %
ORR, Joints and fascia [3]: (71) %
ORR, Liver [3]: (39) %
ORR, Lower GI [3]: (69) %
ORR, Lungs [3]: (26) %
ORR, Mouth [3]: (56) %
ORR, Skin [3]: (37) %
ORR, Upper GI [3]: (52) %
PR, Esophagus [3]: 0%
PR, Eyes [3]: (28) %
PR, Joints and fascia [3]: (51) %
PR, Liver [3]: (8) %
PR, Lower GI [3]: (8) %
PR, Lungs [3]: (13) %
PR, Mouth [3]: (11) %
PR, Skin [3]: (21) %
PR, Upper GI [3]: (4) %
Deaths (Total (N = 132), six during LTFU): (11) %
CR, within 6 mo of treatment (Total, N=132, mITT): (2) %
CR, within 12 mo of treatment (Total, N=132, mITT): (5) %
FFS at 6 mo (Total, N=132, mITT): 75%
FFS at 12 mo (Total, N=132, mITT): 56%
Mean change in CS dose from baseline, Overall (Total, N=132, mITT): −45%
Median CS reduction from baseline to greatest reduction (Total, N=132, mITT): 50%
ORR (best, any time) (Total, N=132, mITT): (76) %
ORR for responses occurring within 6 mo of treatment (Total, N=132, mITT): (72) %
ORR for responses occurring within 12 mo of treatment (Total, N=132, mITT): (75) %
PR, within 6 mo of treatment (Total, N=132, mITT): (70) %
PR, within 12 mo of treatment (Total, N=132, mITT): (71) %
Proportion with CS reduction (Total, N=132, mITT): 65%
CS discontinuation [4]: 21) %
Proportion with CS reduction [4]: (65) %
Clinically significant improvement from baseline (LSS), Overall (200 mg daily, n=66, mITT): 59%
Clinically significant improvement from baseline (LSS), Overall (200 mg daily, n=66, mITT, listed as Belumosudil): (59) %
Clinically significant improvement from baseline (LSS), Overall (200 mg twice daily, n=66, mITT): 62%
Clinically significant improvement from baseline (LSS), Overall (200 mg twice daily, n=66, mITT, listed as Belumosudil): (62) %
Clinically significant improvement from baseline (LSS), Overall (Total, N=132, mITT): (61) %
Grade ≥3 anemia (in vivo): 3%
Grade ≥3 cytopenias (in vivo): < 4%
Grade ≥3 neutropenia (in vivo): 2%
Grade ≥3 thrombocytopenia (in vivo): 2%
SAE: pneumonia (in vivo): 7%
discontinued because of overall AEs (in vivo): 21%
discontinued because of possible drug-related AEs (in vivo): 12%
discontinued because of progression of cGVHD (in vivo): 16%
discontinued because of progression of underlying malignant disease (in vivo): 4%
grade 3 or 4 AE: hyperglycemia (in vivo): 5%
grade 3 or 4 AE: hypertension (in vivo): 6%
grade 3 or 4 AE: pneumonia (in vivo): 8%
liver-related AE: increased GGT (in vivo): 12%
subjects who discontinued calcineurin inhibitor (CNI) therapy (in vivo): 22%
subjects who received an RDI >95% (in vivo): Eighty-one
subjects with >1 SAE (in vivo): Thirty eight
subjects with increased liver function tests (LFTs) (in vivo): Twenty-four
organ-specific best ORR, esophagus (mITT, pooled): 45%
organ-specific best ORR, eyes (mITT, pooled): 42%
organ-specific best ORR, joints/fascia (mITT, pooled): 71%
organ-specific best ORR, liver (mITT, pooled): 39%
organ-specific best ORR, lower GI tract (mITT, pooled): 69%
organ-specific best ORR, lungs (mITT, pooled): 26%
organ-specific best ORR, mouth (mITT, pooled): 55%
organ-specific best ORR, skin (mITT, pooled): 37%
organ-specific best ORR, upper gastrointestinal (GI) tract (mITT, pooled): 52%
nonrelapse mortality (NRM) rate (overall): 7%
share of responses seen after 6 to 12 months of treatment (pooled): 9%
ORRs observed in all subgroups (pooled across arms, mITT): 61-85%
